This note sets out measurements from ChEMBL document CHEMBL5042524, “Discovery of Novel Histone Deacetylase 6 (HDAC6) Inhibitors with Enhanced Antitumor Immunity of Anti-PD-L1 Immunotherapy in Melanoma” (J Med Chem, 2022).

Data set [1] relates to B16-F10. Kind of data set: Antitumour activity against mouse B16-F10 cells allografted in C57BL/6 mouse model assessed as decrease in PD-L1 expression level by Western blot analysis relative to control. The format is functional. Further details: scale not given: the % may be the effect or the level left. A general note: Immunoblotting shows a protein as a band on a membrane.

Data set [2] concerns B16-F10. Kind of data set: Antitumour activity against mouse B16-F10 cells allografted in C57BL/6 mouse model assessed as increase in CD3 positive/CD4 positive cells in tumor at 10 mg/kg, ip administered for 14 days by flow cytometry analysis (Rvb= 8.73%). The format is functional. As to conditions: time 14 day. On the technique in general: In flow cytometry, cells or beads pass a laser one at a time.

The subject of data set [3] is B16-F10. Nature of the data set: Antitumour activity against mouse B16-F10 cells allografted in C57BL/6 mouse model assessed as increase in CD3 positive/CD8 positive cells in tumor at 10 mg/kg, ip administered for 14 days by flow cytometry analysis (Rvb= 6.65%). The format is functional. As to conditions: time 14 day.
Data set [4] can be described thus: Toxicity in C57BL/6 mouse allografted with B16-F10 cells assessed as body weight loss at 10 mg/kg, ip administered daily for 14 days. The settings on record: in vivo, 336 h, time 14 day. The format is organism-based.
Data set [5] deals with B16-F10. Nature of the data set: Potentiation of antitumor activity against mouse B16-F10 cells allografted in C57BL/6 mouse model assessed as decrease in PD-L1 expression level in presence of 2-(5-chloro-2-(3-cyanobenzyloxy)-4-((2-methylbiphenyl-3-yl)methoxy)benzylamino)-2-methylpropanoic acid by Western blot analysis relative to control. The format is functional. On the set-up: scale not given: the % may be the effect or the level left.

A further data set deals with HCT-116. Nature of the data set: cells. The data set is classed as functional, cell-based. As to conditions: Homo sapiens, HCT-116, 48 h.
The target in another data set is Histone deacetylase 3 (Homo sapiens, UniProt O15379). Nature of the data set: Inhibition of recombinant human His-tagged HDAC3 expressed in baculovirus insect cells using Ac-Leu-Gly-Lys (Ac)-AMC as substrate preincubated for 5 mins followed by substrate addition and measured after 30 mins by fluorescence microtiter plate reader assay.
Sequence of Histone deacetylase 3 (O15379 whole entry): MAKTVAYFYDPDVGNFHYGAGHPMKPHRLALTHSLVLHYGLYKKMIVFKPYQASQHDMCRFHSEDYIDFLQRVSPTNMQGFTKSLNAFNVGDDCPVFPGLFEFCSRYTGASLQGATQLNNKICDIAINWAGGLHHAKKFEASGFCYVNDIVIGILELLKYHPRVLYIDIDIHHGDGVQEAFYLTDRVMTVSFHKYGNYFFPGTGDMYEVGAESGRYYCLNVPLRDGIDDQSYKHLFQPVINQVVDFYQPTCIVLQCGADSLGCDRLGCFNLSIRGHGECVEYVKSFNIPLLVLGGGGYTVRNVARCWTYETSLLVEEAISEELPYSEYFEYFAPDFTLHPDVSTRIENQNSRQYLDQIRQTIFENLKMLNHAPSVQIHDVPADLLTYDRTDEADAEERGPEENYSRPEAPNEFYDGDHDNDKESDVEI
The next data set concerns the target Histone deacetylase. Nature of the data set: Inhibition of HDAC in human HeLa nuclear extracts using fluorometric substrate incubated for 30 mins by fluorescence plate reader analysis. The format is cell-based.
Data set [6] has as its system B16-F10. Kind of data set: cells. The format is functional, cell-based. As to conditions: Mus musculus, B16-F10, 48 h.
Description: Antiproliferative activity against mouse B16-F10 cells assessed as inhibition of cell proliferation measured after 48 hrs by MTT assay
Data set [7] is described as follows: Antiproliferative activity against human YCC-11 cells assessed as cell growth inhibition. The format is functional, cell-based.
The target in a further data set is Histone deacetylase 1 (Homo sapiens, UniProt Q13547). Nature of the data set: Inhibition of recombinant human HDAC1 expressed in baculovirus expression system using Ac-Leu-Gly-Lys (Ac)-AMC as substrate preincubated for 5 mins followed by substrate addition and measured after 30 mins by fluorescence microtiter plate reader assay.
Sequence of Histone deacetylase 1 (Q13547 whole entry): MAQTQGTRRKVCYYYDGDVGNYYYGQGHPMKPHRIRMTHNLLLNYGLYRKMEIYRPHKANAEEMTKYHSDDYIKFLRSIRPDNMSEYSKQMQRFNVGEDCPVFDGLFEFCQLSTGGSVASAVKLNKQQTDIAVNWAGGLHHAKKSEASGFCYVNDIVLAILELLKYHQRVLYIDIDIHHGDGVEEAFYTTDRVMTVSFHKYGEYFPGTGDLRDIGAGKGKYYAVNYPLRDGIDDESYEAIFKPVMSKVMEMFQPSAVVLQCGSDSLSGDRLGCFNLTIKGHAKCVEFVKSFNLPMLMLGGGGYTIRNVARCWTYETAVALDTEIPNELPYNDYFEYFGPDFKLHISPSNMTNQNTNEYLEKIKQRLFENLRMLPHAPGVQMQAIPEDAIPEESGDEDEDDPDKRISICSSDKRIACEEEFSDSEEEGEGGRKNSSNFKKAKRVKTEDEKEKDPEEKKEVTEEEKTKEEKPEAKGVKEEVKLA
Data set [8] can be described thus: Cytotoxicity against human Jurkat cells assessed as reduction in cell viability incubated for 72 hrs by CCK-8 assay. (In general: Formazan colour is commonly taken as a measure of viable cells.)
Data set [9] is described as follows: Antiproliferative activity against human YCC3/7 cells assessed as cell growth inhibition. The data set is classed as functional, cell-based.
For the next data set, the system named is A549. Nature of the data set: cells. The format is functional, cell-based. The settings on record: Homo sapiens, A549, 48 h.
A further data set deals with T1, Histone deacetylase 8 (Homo sapiens, UniProt Q9BY41).
T1 sequence (Q9BY41 whole entry): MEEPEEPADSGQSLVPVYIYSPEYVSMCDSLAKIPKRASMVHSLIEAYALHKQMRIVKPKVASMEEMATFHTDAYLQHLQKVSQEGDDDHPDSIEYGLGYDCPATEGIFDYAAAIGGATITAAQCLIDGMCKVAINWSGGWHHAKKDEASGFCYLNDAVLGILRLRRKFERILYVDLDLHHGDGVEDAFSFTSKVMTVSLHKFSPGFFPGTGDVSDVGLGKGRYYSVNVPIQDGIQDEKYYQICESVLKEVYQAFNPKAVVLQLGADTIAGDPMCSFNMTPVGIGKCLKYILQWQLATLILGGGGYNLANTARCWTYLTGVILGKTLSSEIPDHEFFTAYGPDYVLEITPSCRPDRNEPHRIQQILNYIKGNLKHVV
Kind of data set: Inhibition of full length recombinant human C-terminal His tagged HDAC8 expressed in baculovirus infected Sf9 insect cells using Ac-Leu-GlyLys (Tfa)-AMC as substrate preincubated for 5 mins followed by substrate addition and measured after 30 mins by fluorescence microtiter plate reader assay.

Data set [10] addresses T2, Protein deacetylase HDAC6 (Homo sapiens, UniProt Q9UBN7).
T2 sequence (Q9UBN7 whole entry): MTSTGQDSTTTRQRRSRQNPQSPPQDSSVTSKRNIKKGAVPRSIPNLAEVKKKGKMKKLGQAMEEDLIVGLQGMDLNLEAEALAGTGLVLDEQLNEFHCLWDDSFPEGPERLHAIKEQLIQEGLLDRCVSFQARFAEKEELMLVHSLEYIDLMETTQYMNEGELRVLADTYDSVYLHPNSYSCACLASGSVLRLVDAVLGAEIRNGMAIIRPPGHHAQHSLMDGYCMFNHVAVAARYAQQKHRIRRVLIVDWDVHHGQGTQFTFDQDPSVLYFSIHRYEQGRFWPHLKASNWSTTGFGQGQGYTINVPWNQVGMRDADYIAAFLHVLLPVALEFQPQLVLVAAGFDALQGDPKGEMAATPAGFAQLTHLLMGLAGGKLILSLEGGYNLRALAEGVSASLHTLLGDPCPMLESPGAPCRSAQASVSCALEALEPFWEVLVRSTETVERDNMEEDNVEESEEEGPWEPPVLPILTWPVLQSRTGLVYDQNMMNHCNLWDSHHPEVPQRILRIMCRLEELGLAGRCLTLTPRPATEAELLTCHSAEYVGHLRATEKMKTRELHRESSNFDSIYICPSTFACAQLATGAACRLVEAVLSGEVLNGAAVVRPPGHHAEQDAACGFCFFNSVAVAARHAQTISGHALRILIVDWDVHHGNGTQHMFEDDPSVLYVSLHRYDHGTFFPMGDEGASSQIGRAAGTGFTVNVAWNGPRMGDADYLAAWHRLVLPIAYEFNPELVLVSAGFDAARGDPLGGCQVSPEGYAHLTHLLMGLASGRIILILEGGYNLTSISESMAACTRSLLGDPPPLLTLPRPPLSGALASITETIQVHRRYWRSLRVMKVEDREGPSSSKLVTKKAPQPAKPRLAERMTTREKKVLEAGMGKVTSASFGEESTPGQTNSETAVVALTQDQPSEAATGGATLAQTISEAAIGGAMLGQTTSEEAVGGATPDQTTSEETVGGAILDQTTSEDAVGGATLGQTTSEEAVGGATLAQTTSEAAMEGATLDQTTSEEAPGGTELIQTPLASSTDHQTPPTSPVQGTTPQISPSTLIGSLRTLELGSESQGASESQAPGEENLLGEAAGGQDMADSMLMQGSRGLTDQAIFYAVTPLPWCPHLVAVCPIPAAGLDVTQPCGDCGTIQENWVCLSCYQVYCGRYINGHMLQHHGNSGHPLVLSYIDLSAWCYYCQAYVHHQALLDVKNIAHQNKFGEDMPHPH
Nature of the data set: Inhibition of recombinant human N-terminal GST tagged HDAC6 expressed in baculovirus infected Sf9 insect cells using Ac-Leu-Gly-Lys (Ac)-AMC as substrate preincubated for 5 mins followed by substrate addition and measured after 30 mins by fluorescence microtiter plate reader assay.

A further data set deals with MCF7. Kind of data set: cells. The data set is classed as functional, cell-based. As to conditions: Homo sapiens, MCF7, 48 h.
The subject of data set [11] is B16-F10. Nature of the data set: Antitumour activity against mouse B16-F10 cells allografted in C57BL/6 mouse model assessed as increase in acetylated alpha tubulin expression level in tumor at 50 mg/kg, ip measured after 14 days by […] based microscopic analysis (Rvb =1.77%). The format is functional. The settings on record: time 14 day.
Data set [12] deals with B16-F10. Nature of the data set: Antitumor activity against mouse B16-F10 cells allografted in C57BL/6 mouse assessed as tumor growth inhibition at 50 mg/kg, ip administered daily for 14 days by caliper method (Rvb= 63%). As to conditions: 336 h, time 14 day, read-out: TGI. The format is functional.
Data set [13] in a line: Toxicity in C57BL/6 mouse allografted with B16-F10 cells assessed as body weight loss at 50 mg/kg, ip administered daily for 14 days. The format is organism-based. The settings on record: in vivo, 336 h, time 14 day.
Data set [14] can be described thus: Aqueous solubility of the compound incubated for 24 hrs by HPLC based shake-flask method. The data set is classed as physicochemical. The settings on record: buffer.

In brackets after ≈: the same amount, converted by molar mass. A value given as a limit tells only on which side of the number the result lay.

Description for A549: Antiproliferative activity against human A549 cells assessed as inhibition of cell proliferation measured after 48 hrs by MTT assay
Description for HCT-116: Antiproliferative activity against human HCT-116 cells assessed as inhibition of cell proliferation measured after 48 hrs by MTT assay
Description for MCF7: Antiproliferative activity against human MCF7 cells assessed as inhibition of cell proliferation measured after 48 hrs by MTT assay

`Cc1c(COc2cc(OCc3cccc(C#N)c3)c(CNC(C)(C)C(=O)O)cc2Cl)cccc1-c1ccccc1`: the Activity with B16-F10 [1] is 45%; in the data set on B16-F10 [2], 15.4%; in the data set with B16-F10 [3] it was 11.2%; in data set [4], “Non-Toxic”; in the data set with B16-F10 [5], 70%.

Turning to `COc1cccc(-c2ncc(C(=O)NCCCCCCC(=O)NO)s2)c1`, the half-inhibitory concentration (IC50) in the data set with HCT-116 amounted to 930 nM; on Histone deacetylase 3 it was 9.27 µM; against Histone deacetylase it was 0.44 µM; in the data set on B16-F10 [6], 3.52 µM; in data set [7] it was 1300 nM; on Histone deacetylase 1 it was 3.93 µM. For the same compound, the IC50 was determined as 1.56 µM in data set [9]; 6.03 µM with A549; 15.2 µM at Histone deacetylase 8; 590 nM in [10]; 1900 nM in the data set on MCF7. For the same compound, the IC50 at 72 h in data set [8] was found to be 330 nM.

Take `COc1ccccc1-c1ncc(C(=O)NCCCCCCC(=O)NO)s1`: the concentration for half-maximal inhibition (IC50) in the data set on HCT-116 was 910 nM; at Histone deacetylase 3, 6.49 µM; against Histone deacetylase, 0.27 µM; with B16-F10 [6], more than 10 µM; in [7] it was 2690 nM; on Histone deacetylase 1 it was 5.13 µM. The IC50 in data set [9] came to 6.68 µM; in the data set on A549, 5.04 µM; on Histone deacetylase 8, 10.2 µM; in data set [10], 650 nM; in the data set on MCF7 it was 1930 nM. The IC50 at 72 h in data set [8] turned out to be 350 nM.

Regarding `COc1ccc(-c2ncc(C(=O)NCCCCCC(=O)NO)s2)c(OC)c1`, the IC50 turned out to be 2190 nM with HCT-116; 12.4 µM at Histone deacetylase 3; 0.35 µM against Histone deacetylase; 2.94 µM in the data set on B16-F10 [6]; 6520 nM in data set [7]; 11.2 µM at Histone deacetylase 1. The IC50 in [9] amounted to 8.73 µM; in the data set with A549, 6.71 µM; at Histone deacetylase 8, 19.8 µM; in [10] it was 76 nM; in the data set on MCF7, 2810 nM. Further, the IC50 at 72 h in data set [8] came out at 1720 nM.

Turning to `CC(C)(C)OC(=O)Nc1ccc(-c2ncc(C(=O)NCCCCCCC(=O)NO)s2)cc1`, the IC50 was 2880 nM with HCT-116; 5.88 µM at Histone deacetylase 3; 0.29 µM against Histone deacetylase; more than 10 µM in the data set with B16-F10 [6]; 2090 nM in data set [7]; 9.32 µM on Histone deacetylase 1. Also, the IC50 was 10.1 µM in [9]; more than 10 µM in the data set with A549; 5.22 µM on Histone deacetylase 8; 67 nM in [10]; more than 10000 nM in the data set on MCF7. Also, in data set [8], the IC50 at 72 h is 1340 nM.

In the case of `CC(C)(C)OC(=O)Nc1ccc(-c2cc(C(=O)NCCCCCCC(=O)NO)no2)cc1`, the Activity in the data set with B16-F10 [11] was 37.9%; in [13] it was “Non-Toxic”. In addition, the IC50 in the data set on HCT-116 was determined as 1470 nM; at Histone deacetylase 3, 0.76 µM; with B16-F10 [6], 9.41 µM; in data set [7], 4080 nM; at Histone deacetylase 1, 0.26 µM; in data set [9], 6.25 µM. The IC50 in the data set with A549 is more than 10 µM; at Histone deacetylase 8, 6.21 µM; in the data set on MCF7, 2820 nM. Also, the inhibition in vivo at 50 mg/kg in the data set on B16-F10 [12] is 52%. In data set [14], this compound registered a thermodynamic solubility at 24 h of 16.1 µg/mL (≈ 36 µM). Moreover, the IC50 at 72 h in data set [8] is 610 nM.

What is called IC50 is the concentration that gives 50% inhibition. By solubility (thermodynamic) is commonly meant the concentration in solution at equilibrium with solid.
